Measured values from PMC8057513, “Comparison of edible brown algae extracts for the inhibition of intestinal carbohydrate digestive enzymes involved in glucose release from the diet” (Journal of Nutritional Science, 2021).
In brackets after ≈: the same amount, converted by molar mass.

Assays:
Format in all cases: biochemical
[1] = biological target: T1, maltase (rat intestinal α-glucosidase); assay: maltose hydrolysis, released glucose by HPAEC-PAD; Dixon plot; settings: maltose 1.25-5 mM, pH 6.9, 37 °C; competitive; crude intestinal extract
T1 construct: gene Mgam; crude phosphate-buffer supernatant of rat intestinal acetone powder (Sigma-Aldrich, labelled EC 3.2.1.48), not purified; maltose-hydrolysing activity of mixed brush-border alpha-glucosidases
From the text: maltose hydrolysis, released glucose by HPAEC-PAD; Dixon plot on maltase (rat intestinal α-glucosidase)

[2] = biological target: T1, maltase (rat intestinal α-glucosidase); assay: maltose hydrolysis, released glucose by HPAEC-PAD; settings: 10 mM maltose, phosphate buffer 100 mM pH 6.9, 37 °C, 30 min; crude intestinal extract
From the text: maltose hydrolysis, released glucose by HPAEC-PAD on maltase (rat intestinal α-glucosidase)

[3] = system: T1, maltase (rat intestinal α-glucosidase); assay: maltose hydrolysis, released glucose by HPAEC-PAD; Lineweaver-Burk plot; settings: phosphate buffer 100 mM pH 6.9, 37 °C; crude intestinal extract

Ki [1] | IC50 [2] | Km [3] | SMILES
0.07 µg/mL (≈ 0.108 µM) | 0.15 ± 0.02 µg/mL (≈ 0.232 µM) | – | C[C@H]1O[C@H](O[C@H]2[C@H](O)[C@@H](O)[C@@H](O[C@H]3[C@H](O)[C@@H](O)C(O)O[C@@H]3CO)O[C@@H]2CO)[C@H](O)[C@@H](O)[C@@H]1N[C@H]1C=C(CO)[C@@H](O)[C@H](O)[C@H]1O (stereo partly drawn) [Acarbose]
– | – | 5.8 mM | OC[C@H]1O[C@H](O[C@H]2[C@H](O)[C@@H](O)C(O)O[C@@H]2CO)[C@H](O)[C@@H](O)[C@@H]1O (stereo partly drawn) [maltose]
